PubChem BioAssay (NCI)
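Assay format: 96-well plates, 48-hour exposure. GI50 is the concentration that inhibits growth by half. Definition used: TGI = concentration required for complete inhibition of growth.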

Experiments:
Assay in all cases: NCI tumour cell line growth inhibition, 48 h
OVCAR-5 ovarian = test system: OVCAR-5 ovarian
DU-145 prostate = test system: DU-145 prostate
T-47D breast = test system: T-47D breast
HCT-116 colon = test system: HCT-116 colon
NCI-H226 lung = test system: NCI-H226 lung
CAKI-1 renal = test system: CAKI-1 renal
A498 renal = test system: A498 renal
HT29 colon = test system: HT29 colon
SK-MEL-5 melanoma = test system: SK-MEL-5 melanoma
K-562 leukemia = test system: K-562 leukemia
SF-268 CNS = test system: SF-268 CNS
NCI-H522 lung = test system: NCI-H522 lung
HL-60(TB) leukemia = test system: HL-60(TB) leukemia
LOX IMVI melanoma = test system: LOX IMVI melanoma
SR leukemia = test system: SR leukemia
PC-3 prostate = test system: PC-3 prostate
UACC-257 melanoma = test system: UACC-257 melanoma
786-0 renal = test system: 786-0 renal
TK-10 renal = test system: TK-10 renal
SNB-19 CNS = test system: SNB-19 CNS
COLO 205 colon = test system: COLO 205 colon
SN12C renal = test system: SN12C renal
SW-620 colon = test system: SW-620 colon
UO-31 renal = test system: UO-31 renal
MALME-3M melanoma = test system: MALME-3M melanoma
OVCAR-8 ovarian = test system: OVCAR-8 ovarian
SK-MEL-2 melanoma = test system: SK-MEL-2 melanoma
MDA-MB-231 breast = test system: MDA-MB-231 breast
CCRF-CEM leukemia = test system: CCRF-CEM leukemia
A549 NSCLC = test system: A549 NSCLC
MDA-MB-435 = test system: MDA-MB-435
OVCAR-4 ovarian = test system: OVCAR-4 ovarian
U251 CNS = test system: U251 CNS
SK-OV-3 ovarian = test system: SK-OV-3 ovarian
SF-539 CNS = test system: SF-539 CNS
HCC-2998 colon = test system: HCC-2998 colon
KM12 colon = test system: KM12 colon
HCT-15 colon = test system: HCT-15 colon
SF-295 CNS = test system: SF-295 CNS
SK-MEL-28 melanoma = test system: SK-MEL-28 melanoma
NCI-H23 lung = test system: NCI-H23 lung
MCF7 breast = test system: MCF7 breast
HOP-62 NSCLC = test system: HOP-62 NSCLC
NCI-H460 lung = test system: NCI-H460 lung
IGROV1 ovarian = test system: IGROV1 ovarian
MDA-MB-468 breast = test system: MDA-MB-468 breast
BT-549 breast = test system: BT-549 breast
EKVX NSCLC = test system: EKVX NSCLC
OVCAR-3 ovarian = test system: OVCAR-3 ovarian
RXF 393 renal = test system: RXF 393 renal
RPMI-8226 leukemia = test system: RPMI-8226 leukemia
UACC-62 melanoma = test system: UACC-62 melanoma
ACHN renal = test system: ACHN renal
HOP-92 NSCLC = test system: HOP-92 NSCLC

SMILES: COc1cc(/C=C/C(=O)c2cnn(-c3cc(=O)[nH]c4ccc(Br)cc34)c2C)cc(OC)c1OC
- GI50 (OVCAR-5 ovarian): 3.09 µM
- TGI (OVCAR-5 ovarian): 10.7 µM
- GI50 (DU-145 prostate): 3.61 µM
- TGI (DU-145 prostate): 30.5 µM
- GI50 (T-47D breast): 3.06 µM
- TGI (T-47D breast): 18.8 µM
- GI50 (HCT-116 colon): 3.27 µM
- TGI (HCT-116 colon): 11.5 µM
- GI50 (NCI-H226 lung): 2490 nM
- TGI (NCI-H226 lung): 7.38 µM
- GI50 (CAKI-1 renal): 4.11 µM
- TGI (CAKI-1 renal): 31.3 µM
- GI50 (A498 renal): 28.5 µM
- TGI (A498 renal): 51.6 µM
- GI50 (HT29 colon): 2200 nM
- TGI (HT29 colon): 5.07 µM
- GI50 (SK-MEL-5 melanoma): 3.05 µM
- TGI (SK-MEL-5 melanoma): 10.7 µM
- GI50 (K-562 leukemia): 2860 nM
- TGI (K-562 leukemia): > 100 µM
- GI50 (SF-268 CNS): 3.76 µM
- TGI (SF-268 CNS): > 100 µM
- GI50 (NCI-H522 lung): 2260 nM
- TGI (NCI-H522 lung): 5.98 µM
- GI50 (HL-60(TB) leukemia): 3 µM
- TGI (HL-60(TB) leukemia): > 100 µM
- GI50 (LOX IMVI melanoma): 1490 nM
- TGI (LOX IMVI melanoma): 3.35 µM
- GI50 (SR leukemia): 2440 nM
- TGI (SR leukemia): > 100 µM
- GI50 (PC-3 prostate): 5.19 µM
- TGI (PC-3 prostate): > 100 µM
- GI50 (UACC-257 melanoma): 7.78 µM
- TGI (UACC-257 melanoma): 48.5 µM
- GI50 (786-0 renal): 3.63 µM
- TGI (786-0 renal): 14.3 µM
- GI50 (TK-10 renal): 3.8 µM
- TGI (TK-10 renal): 24.1 µM
- GI50 (SNB-19 CNS): 3.25 µM
- TGI (SNB-19 CNS): 12.6 µM
- GI50 (COLO 205 colon): 3.35 µM
- TGI (COLO 205 colon): 10.9 µM
- GI50 (SN12C renal): 2940 nM
- TGI (SN12C renal): 11.6 µM
- GI50 (SW-620 colon): 3.09 µM
- TGI (SW-620 colon): 8.61 µM
- GI50 (UO-31 renal): 2830 nM
- TGI (UO-31 renal): 12.5 µM
- GI50 (MALME-3M melanoma): 4.66 µM
- TGI (MALME-3M melanoma): 22.3 µM
- GI50 (OVCAR-8 ovarian): 3.48 µM
- TGI (OVCAR-8 ovarian): > 100 µM
- GI50 (SK-MEL-2 melanoma): 3.52 µM
- TGI (SK-MEL-2 melanoma): 12.2 µM
- GI50 (MDA-MB-231 breast): 3.11 µM
- TGI (MDA-MB-231 breast): 13.7 µM
- GI50 (CCRF-CEM leukemia): 2880 nM
- TGI (CCRF-CEM leukemia): > 100 µM
- GI50 (A549 NSCLC): 3.52 µM
- TGI (A549 NSCLC): > 100 µM
- GI50 (MDA-MB-435): 2720 nM
- TGI (MDA-MB-435): 8.65 µM
- GI50 (OVCAR-4 ovarian): 5.2 µM
- TGI (OVCAR-4 ovarian): > 100 µM
- GI50 (U251 CNS): 2540 nM
- TGI (U251 CNS): 7.37 µM
- GI50 (SK-OV-3 ovarian): 4.34 µM
- TGI (SK-OV-3 ovarian): > 100 µM
- GI50 (SF-539 CNS): 2030 nM
- TGI (SF-539 CNS): 4.54 µM
- GI50 (HCC-2998 colon): 3.3 µM
- TGI (HCC-2998 colon): 11 µM
- GI50 (KM12 colon): 3.48 µM
- TGI (KM12 colon): 14.6 µM
- GI50 (HCT-15 colon): 1710 nM
- TGI (HCT-15 colon): 3.92 µM
- GI50 (SF-295 CNS): 2400 nM
- TGI (SF-295 CNS): 7.75 µM
- GI50 (SK-MEL-28 melanoma): 2840 nM
- TGI (SK-MEL-28 melanoma): 8.75 µM
- GI50 (NCI-H23 lung): 1920 nM
- TGI (NCI-H23 lung): 4.33 µM
- GI50 (MCF7 breast): 2160 nM
- TGI (MCF7 breast): 9.06 µM
- GI50 (HOP-62 NSCLC): 3.55 µM
- TGI (HOP-62 NSCLC): 17.2 µM
- GI50 (NCI-H460 lung): 2390 nM
- TGI (NCI-H460 lung): 5.37 µM
- GI50 (IGROV1 ovarian): 2230 nM
- TGI (IGROV1 ovarian): 6.33 µM
- GI50 (MDA-MB-468 breast): 1930 nM
- TGI (MDA-MB-468 breast): 5.43 µM
- GI50 (BT-549 breast): 2290 nM
- TGI (BT-549 breast): 6.28 µM
- GI50 (EKVX NSCLC): 2960 nM
- TGI (EKVX NSCLC): 13.4 µM
- GI50 (OVCAR-3 ovarian): 3.45 µM
- TGI (OVCAR-3 ovarian): 12.1 µM
- GI50 (RXF 393 renal): 1870 nM
- TGI (RXF 393 renal): 3.95 µM
- GI50 (RPMI-8226 leukemia): 2840 nM
- TGI (RPMI-8226 leukemia): > 100 µM
- GI50 (UACC-62 melanoma): 1790 nM
- TGI (UACC-62 melanoma): 4 µM
- GI50 (ACHN renal): 1840 nM
- TGI (ACHN renal): 4.31 µM
- GI50 (HOP-92 NSCLC): 8.2 µM
- TGI (HOP-92 NSCLC): > 100 µM

SMILES: CC(=O)Oc1ccccc1C(=O)N=C1[Se]CCCN1C(=O)c1ccccc1OC(C)=O
- GI50 (MDA-MB-468 breast): 3380 nM
- TGI (MDA-MB-468 breast): 10.9 µM

SMILES: CN(C)c1ccc2nc3ccc(=O)cc-3sc2c1
- GI50 (MDA-MB-468 breast): 1490 nM
- TGI (MDA-MB-468 breast): 6.99 µM

SMILES: O=C(N/N=C\c1cc(Br)ccc1O)c1ccncc1
- GI50 (MDA-MB-468 breast): 1070 nM
- TGI (MDA-MB-468 breast): 5.51 µM

SMILES: CCN1C(=O)N(CC)C2C1NC(=S)N2/N=C/C=C/c1cccs1 (stereo unspecified)
- GI50 (MDA-MB-468 breast): 198 nM

SMILES: O=c1[nH]c2cc(Cl)ccc2n1C1CCN(CCCC(c2ccc(F)cc2)c2ccc(F)cc2)CC1
- GI50 (MDA-MB-468 breast): 1650 nM
- TGI (MDA-MB-468 breast): 3.14 µM

SMILES: C#CC(=O)Nc1cccc(Nc2nc3c(c(NCc4ccccc4)n2)CCCC3)c1
- GI50 (MDA-MB-468 breast): 168 nM
- TGI (MDA-MB-468 breast): 0.573 µM

SMILES: COc1ccc(CNc2c3ccccc3nc3ccccc23)cc1OC
- GI50 (MDA-MB-468 breast): 1580 nM
- TGI (MDA-MB-468 breast): 4.14 µM

SMILES: Cc1[nH]n(-c2cccc(Cl)c2)c(=O)c1/C=C1\C=Nc2ccc(Br)cc21
- GI50 (MDA-MB-468 breast): 3970 nM
- TGI (MDA-MB-468 breast): 29.2 µM

SMILES: N#CC1(C2SCCS2=O)C2=C(C(=O)c3ccccc3C2=O)N2CCCC21 (stereo unspecified)
- GI50 (MDA-MB-468 breast): 467 nM
- TGI (MDA-MB-468 breast): 1.9 µM

SMILES: Cc1c[n+](Cc2ccc3ccccc3c2)cn1Cc1ccc2ccccc2c1
- GI50 (MDA-MB-468 breast): 362 nM
- TGI (MDA-MB-468 breast): 1.35 µM

SMILES: Nc1nc(Br)nc2c1ncn2C1CC(O)C(CO)O1 (stereo unspecified)
- GI50 (MDA-MB-468 breast): > 100000 nM
- TGI (MDA-MB-468 breast): > 100 µM

SMILES: Nc1nc(Nc2ccccc2)c2ncn(Cc3cc4c(cc3Br)OCO4)c2n1
- GI50 (MDA-MB-468 breast): < 10 nM
- TGI (MDA-MB-468 breast): 18.2 µM
